Measured values as given in ChEMBL document CHEMBL5154804, “Species-Selective Targeting of Fungal Hsp90: Design, Synthesis, and Evaluation of Novel 4,5-Diarylisoxazole Derivatives for the Combination Treatment of Azole-Resistant Candidiasis” (J Med Chem, 2022).
Converted amounts (≈) assume the structure as drawn. The source made the active and inactive calls. No cut-off for these calls is given here.

Experiments:
Candida albicans [1] = assay: Antifungal activity against fluconazole-resistant Candida albicans 901 assessed as inhibition of fungal growth by checker board microdilution assay; type: functional
Candida albicans [2] = assay: Synergistic antifungal activity against fluconazole-resistant Candida albicans 901 assessed as inhibition of fungal growth in presence of fluconazole by checker board microdilution assay; type: functional
Candida albicans [3] = assay: Antifungal activity against fluconazole-resistant Candida albicans 103 assessed as inhibition of fungal growth by checker board microdilution assay; type: functional
Candida albicans [4] = assay: Antifungal activity against fluconazole-resistant Candida albicans 632 assessed as inhibition of fungal growth by checker board microdilution assay; type: functional
Candida albicans [5] = assay: Antifungal activity against fluconazole-resistant Candida albicans 904 assessed as inhibition of fungal growth by checker board microdilution assay; type: functional
Candida albicans [6] = assay: Reversal of fluconazole mediated azole resistant Candida albicans 904 assessed as upregulation of CDR2 expression at 32 ug/ml by RT-PCR; type: functional, organism-based; conditions: dose 32.0 µg/ml
Candida albicans [7] = assay: Synergistic antifungal activity against fluconazole-resistant Candida albicans 904 assessed as inhibition of fungal growth in presence of fluconazole by checker board microdilution assay; type: functional
Candida albicans [8] = assay: Antibiofilm activity against Candida albicans 904 assessed as inhibition of […] metabolism within the biofilm after 24 hrs by XTT reduction assay; type: functional
Candida albicans [9] = assay: Antibiofilm activity against Candida albicans 904 assessed as inhibition of […] metabolism within the biofilm after 48 hrs by XTT reduction assay; type: functional
Candida albicans [10] = assay: Synergistic antifungal activity against fluconazole-resistant Candida albicans 103 assessed as inhibition of fungal growth in presence of fluconazole by checker board microdilution assay; type: functional
Candida albicans [11] = assay: Fungicidal activity against Candida albicans 904 assessed as colony forming at 4 times MIC incubated for 48 hrs by time-kill curve assay; type: functional
Candida albicans [12] = assay: Synergistic antifungal activity against fluconazole-resistant Candida albicans 100 assessed as inhibition of fungal growth in presence of fluconazole by checker board microdilution assay; type: functional
Candida albicans [13] = assay: Synergistic antifungal activity against fluconazole-resistant Candida albicans 632 assessed as inhibition of fungal growth in presence of fluconazole by checker board microdilution assay; type: functional
Candida albicans [14] = assay: Antifungal activity against fluconazole-resistant Candida albicans 311 assessed as inhibition of fungal growth by checker board microdilution assay; type: functional
Candida albicans [15] = assay: Antifungal activity against fluconazole-resistant Candida albicans 100 assessed as inhibition of fungal growth by checker board microdilution assay; type: functional
Candida albicans [16] = assay: Reversal of fluconazole mediated azole resistant Candida albicans 904 assessed as upregulation of CDR1 expression at 32 ug/ml by RT-PCR; type: functional, organism-based; conditions: dose 32.0 µg/ml
Candida albicans [17] = assay: Synergistic antifungal activity against fluconazole-resistant Candida albicans 311 assessed as inhibition of fungal growth in presence of fluconazole by checker board microdilution assay; type: functional

What does the source list for OC(Cn1cncn1)(Cn1cncn1)c1ccc(F)cc1F [FLUCONAZOLE]?
MIC80 (Candida albicans [1]): > 64 µg/mL; MIC80 (Candida albicans [2]): > 64 µg/mL; MIC80 (Candida albicans [3]): 64 µg/mL; MIC80 (Candida albicans [4]): > 64 µg/mL; MIC80 (Candida albicans [5]): > 64 µg/mL; Activity (Candida albicans [6]): Active; MIC80 (Candida albicans [7]): > 64 µg/mL; MIC50 (Candida albicans [8]): 32 µg/mL (≈ 104 µM); MIC50 (Candida albicans [9]): > 64 µg/mL; MIC80 (Candida albicans [10]): > 64 µg/mL; MFC (Candida albicans [11]): > 64 µg/mL; MIC80 (Candida albicans [12]): > 64 µg/mL; MIC80 (Candida albicans [13]): > 64 µg/mL; MIC80 (Candida albicans [14]): 64 µg/mL; MIC80 (Candida albicans [15]): > 64 µg/mL; Activity (Candida albicans [16]): Active; MIC80 (Candida albicans [17]): > 64 µg/mL
